#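 The compound was tested at five concentrations on cells cultured in 96-well plates, with a 48-hour exposure period. GI50 is the concentration that inhibits growth by half. TGI is the concentration that stops growth completely.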
# How the values were obtained:
# Assay in all cases: NCI anticancer screen, dose series, 48 h
# [1] = tested on: SNB-19 CNS
# [2] = tested on: HS 578T breast
# [3] = tested on: HOP-92 NSCLC
# [4] = tested on: KM12 colon
# [5] = tested on: DU-145 prostate
# [6] = tested on: HCC-2998 colon
# [7] = tested on: NCI-H23 lung
# [8] = tested on: HOP-62 NSCLC
# [9] = tested on: MDA-MB-435
# [10] = tested on: SR leukemia
# [11] = tested on: HT29 colon
# [12] = tested on: NCI-H226 lung
# [13] = tested on: SK-MEL-28 melanoma
# [14] = tested on: BT-549 breast
# [15] = tested on: SK-OV-3 ovarian
# [16] = tested on: TK-10 renal
# [17] = tested on: MDA-MB-231 breast
# [18] = tested on: HCT-15 colon
# [19] = tested on: CCRF-CEM leukemia
# [20] = tested on: PC-3 prostate
# [21] = tested on: RXF 393 renal
# [22] = tested on: RPMI-8226 leukemia
# [23] = tested on: 786-0 renal
# [24] = tested on: SNB-75 CNS
# [25] = tested on: HL-60(TB) leukemia
# [26] = tested on: NCI-H460 lung
# [27] = tested on: MCF7 breast
# [28] = tested on: MALME-3M melanoma
# [29] = tested on: K-562 leukemia
# [30] = tested on: A498 renal
# [31] = tested on: A549 NSCLC
# [32] = tested on: HCT-116 colon
# [33] = tested on: OVCAR-8 ovarian
# [34] = tested on: COLO 205 colon
# [35] = tested on: OVCAR-5 ovarian
# [36] = tested on: ACHN renal
# [37] = tested on: LOX IMVI melanoma
# [38] = tested on: T-47D breast
# [39] = tested on: SW-620 colon
# [40] = tested on: SK-MEL-5 melanoma
# [41] = tested on: OVCAR-4 ovarian
# [42] = tested on: M14 melanoma
# [43] = tested on: CAKI-1 renal
# [44] = tested on: MOLT-4 leukemia
# [45] = tested on: SN12C renal
# [46] = tested on: NCI-H522 lung
# [47] = tested on: SF-539 CNS
# [48] = tested on: NCI/ADR-RES ovarian
# [49] = tested on: UO-31 renal
# [50] = tested on: OVCAR-3 ovarian
# [51] = tested on: U251 CNS
# [52] = tested on: UACC-62 melanoma
# [53] = tested on: UACC-257 melanoma
# [54] = tested on: SK-MEL-2 melanoma
# [55] = tested on: SF-268 CNS
# [56] = tested on: IGROV1 ovarian
compound,measurement,setting,value
CC/C(=C(/c1ccc(OCCN(C)C)cc1)c1ccc(OC(=O)CCCCC(=O)c2c(C)[nH]c(/C=C3\N=C(c4ccc[nH]4)C=C3OC)c2C)cc1)c1ccccc1,GI50,[1],12.8 µM
same,TGI,[1],27.4 µM
same,GI50,[2],4.98 µM
same,TGI,[2],47.6 µM
same,GI50,[3],1120 nM
same,TGI,[3],6.28 µM
same,GI50,[4],3.75 µM
same,TGI,[4],14.3 µM
same,GI50,[5],7.73 µM
same,TGI,[5],21.1 µM
same,GI50,[6],13.2 µM
same,TGI,[6],26.7 µM
same,GI50,[7],12.7 µM
same,TGI,[7],29.7 µM
same,GI50,[8],12.3 µM
same,TGI,[8],24.7 µM
same,GI50,[9],7 µM
same,TGI,[9],46.1 µM
same,GI50,[10],3.05 µM
same,TGI,[10],21 µM
same,GI50,[11],2990 nM
same,TGI,[11],14.7 µM
same,GI50,[12],14.2 µM
same,TGI,[12],34.3 µM
same,GI50,[13],11.6 µM
same,TGI,[13],23.7 µM
same,GI50,[14],3.57 µM
same,TGI,[14],17 µM
same,GI50,[15],14.1 µM
same,TGI,[15],27 µM
same,GI50,[16],12.8 µM
same,TGI,[16],25.4 µM
same,GI50,[17],1990 nM
same,TGI,[17],11.4 µM
same,GI50,[18],4.44 µM
same,TGI,[18],28.5 µM
same,GI50,[19],320 nM
same,TGI,[19],> 100 µM
same,GI50,[20],4.6 µM
same,TGI,[20],20.6 µM
same,GI50,[21],3.86 µM
same,TGI,[21],17.7 µM
same,GI50,[22],3.17 µM
same,TGI,[22],18.8 µM
same,GI50,[23],4.77 µM
same,TGI,[23],19.2 µM
same,GI50,[24],8.17 µM
same,TGI,[24],23.2 µM
same,GI50,[25],18 µM
same,TGI,[25],41.9 µM
same,GI50,[26],3.99 µM
same,TGI,[26],15.5 µM
same,GI50,[27],54.4 nM
same,TGI,[27],1200 nM
same,GI50,[28],9.28 µM
same,TGI,[28],34.4 µM
same,GI50,[29],3.16 µM
same,TGI,[29],12.6 µM
same,GI50,[30],12.8 µM
same,TGI,[30],26.1 µM
same,GI50,[31],3.92 µM
same,TGI,[31],15.7 µM
same,GI50,[32],3.55 µM
same,TGI,[32],13.9 µM
same,GI50,[33],6.55 µM
same,TGI,[33],19.9 µM
same,GI50,[34],10.7 µM
same,TGI,[34],23.2 µM
same,GI50,[35],10.6 µM
same,TGI,[35],22.5 µM
same,GI50,[36],4.84 µM
same,TGI,[36],22.8 µM
same,GI50,[37],2050 nM
same,TGI,[37],5.14 µM
same,GI50,[38],1370 nM
same,TGI,[38],6.02 µM
same,GI50,[39],3.16 µM
same,TGI,[39],11.4 µM
same,GI50,[40],1610 nM
same,TGI,[40],3.11 µM
same,GI50,[41],4.39 µM
same,TGI,[41],22.3 µM
same,GI50,[42],1840 nM
same,TGI,[42],4 µM
same,GI50,[43],6.27 µM
same,TGI,[43],36.1 µM
same,GI50,[44],1730 nM
same,TGI,[44],24.8 µM
same,GI50,[45],5.39 µM
same,TGI,[45],21.4 µM
same,GI50,[46],3.59 µM
same,TGI,[46],14.3 µM
same,GI50,[47],7.32 µM
same,TGI,[47],20.6 µM
same,GI50,[48],12.6 µM
same,TGI,[48],46.8 µM
same,GI50,[49],2810 nM
same,TGI,[49],21.3 µM
same,GI50,[50],11.7 µM
same,TGI,[50],27 µM
same,GI50,[51],5.22 µM
same,TGI,[51],18.3 µM
same,GI50,[52],4.94 µM
same,TGI,[52],17.8 µM
same,GI50,[53],12 µM
same,TGI,[53],28.9 µM
same,GI50,[54],16.7 µM
same,TGI,[54],33.5 µM
same,GI50,[55],7.79 µM
same,TGI,[55],30 µM
same,GI50,[56],13.3 µM
same,TGI,[56],46 µM

# From PubChem BioAssay (NCI)
